Results published in the supplement of paper PMC10307832.

Tests used:
Assay in all cases: relative viability (nuclei count vs DMSO), 5 days (fraction); higher = more cells survive
NCI-H441 = test system: NCI-H441
In short: (§1)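 A single step with final 0.05% Triton X-100, 1% formaldehyde and 1 ug/ml Hoechst fixed the cells and stained nuclei 5 days after treatment. Lung cancer cell lines in 1536-well plates had been treated by pin tool the day after seeding with one drug alone or a fixed anchor-drug dose plus five library-drug doses (not always all listed) in √10 steps, and nuclei were counted on 4× images. Relative viability is the ratio of nuclei in treated wells to nuclei in vehicle wells, taken as the median of duplicate plates.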

NCI-H3122 = test system: NCI-H3122
In short: as §1

EKVX = test system: EKVX
In short: as §1

ABC-1 = test system: ABC-1
In short: as §1

EPLC-272H = test system: EPLC-272H
In short: as §1

PC-14 = test system: PC-14
In short: as §1

COR-L23 = test system: COR-L23
In short: as §1

RERF-LC-KJ = test system: RERF-LC-KJ
In short: as §1

NCI-H2347 = test system: NCI-H2347
In short: as §1

NCI-H2405 = test system: NCI-H2405
In short: as §1

201T = test system: 201T
In short: as §1

NCI-H1650 = test system: NCI-H1650
In short: as §1

NCI-H1993 = test system: NCI-H1993
In short: as §1

NCI-H2023 = test system: NCI-H2023
In short: as §1

NCI-H520 = test system: NCI-H520
In short: as §1

NCI-H2170 = test system: NCI-H2170
In short: as §1

NCI-H647 = test system: NCI-H647
In short: as §1

HCC-44 = test system: HCC-44
In short: as §1

NCI-H1793 = test system: NCI-H1793
In short: as §1

NCI-H2085 = test system: NCI-H2085
In short: as §1

NCI-H1734 = test system: NCI-H1734
In short: as §1

LOU-NH91 = test system: LOU-NH91
In short: as §1

NCI-H1563 = test system: NCI-H1563
In short: as §1

SW 900 = test system: SW 900
In short: as §1

Structure (SMILES): Clc1ccc(Nc2nnc(Cc3ccncc3)c3ccccc23)cc1 [Vatalanib] + CCNC(=O)c1noc(-c2cc(C(C)C)c(O)cc2O)c1-c1ccc(CN2CCOCC2)cc1 [Luminespib] (partner 0.01 µM)
- relative viability (NCI-H441; first compound 0.04 µM): 0.367
- relative viability (NCI-H441; first compound 0.1265 µM): 0.251
- relative viability (NCI-H441; first compound 0.4 µM): 0.382
- relative viability (NCI-H441; first compound 1.265 µM): 0.377
- relative viability (NCI-H441; first compound 4 µM): 0.354
- relative viability (NCI-H3122; first compound 0.04 µM): 0.0962
- relative viability (NCI-H3122; first compound 0.1265 µM): 0.0894
- relative viability (NCI-H3122; first compound 0.4 µM): 0.0775
- relative viability (NCI-H3122; first compound 1.265 µM): 0.0975
- relative viability (NCI-H3122; first compound 4 µM): 0.0766
- relative viability (EKVX; first compound 0.04 µM): 0.904
- relative viability (EKVX; first compound 0.1265 µM): 0.805
- relative viability (EKVX; first compound 0.4 µM): 0.876
- relative viability (EKVX; first compound 4 µM): 0.852
- relative viability (ABC-1; first compound 0.04 µM): 0.822
- relative viability (ABC-1; first compound 1.265 µM): 0.63
- relative viability (ABC-1; first compound 4 µM): 0.507
- relative viability (EPLC-272H; first compound 0.04 µM): 0.593
- relative viability (EPLC-272H; first compound 0.1265 µM): 0.654
- relative viability (EPLC-272H; first compound 0.4 µM): 0.26
- relative viability (EPLC-272H; first compound 1.265 µM): 0.2
- relative viability (EPLC-272H; first compound 4 µM): 0.296
- relative viability (PC-14; first compound 0.04 µM): 0.155
- relative viability (PC-14; first compound 0.1265 µM): 0.19
- relative viability (PC-14; first compound 1.265 µM): 0.158
- relative viability (PC-14; first compound 4 µM): 0.149
- relative viability (COR-L23; first compound 0.04 µM): 0.715
- relative viability (COR-L23; first compound 0.1265 µM): 0.666
- relative viability (COR-L23; first compound 0.4 µM): 0.835
- relative viability (COR-L23; first compound 1.265 µM): 0.646
- relative viability (COR-L23; first compound 4 µM): 0.588
- relative viability (RERF-LC-KJ; first compound 0.04 µM): 1.17
- relative viability (RERF-LC-KJ; first compound 0.1265 µM): 1.22
- relative viability (RERF-LC-KJ; first compound 0.4 µM): 1.2
- relative viability (RERF-LC-KJ; first compound 1.265 µM): 1.05
- relative viability (RERF-LC-KJ; first compound 4 µM): 1.07
- relative viability (NCI-H2347; first compound 0.04 µM): 0.416
- relative viability (NCI-H2347; first compound 0.1265 µM): 0.425
- relative viability (NCI-H2347; first compound 0.4 µM): 0.254
- relative viability (NCI-H2347; first compound 1.265 µM): 0.549
- relative viability (NCI-H2347; first compound 4 µM): 0.509
- relative viability (NCI-H2405; first compound 0.04 µM): 0.753
- relative viability (NCI-H2405; first compound 0.1265 µM): 0.775
- relative viability (NCI-H2405; first compound 1.265 µM): 0.594
- relative viability (NCI-H2405; first compound 4 µM): 0.717
- relative viability (201T; first compound 0.04 µM): 1.07
- relative viability (201T; first compound 0.1265 µM): 1.05
- relative viability (201T; first compound 0.4 µM): 1.13
- relative viability (201T; first compound 1.265 µM): 1.04
- relative viability (201T; first compound 4 µM): 1.13
- relative viability (NCI-H1650; first compound 0.04 µM): 0.21
- relative viability (NCI-H1650; first compound 0.1265 µM): 0.193
- relative viability (NCI-H1650; first compound 0.4 µM): 0.206
- relative viability (NCI-H1650; first compound 1.265 µM): 0.203
- relative viability (NCI-H1650; first compound 4 µM): 0.208
- relative viability (NCI-H1993; first compound 0.04 µM): 0.955
- relative viability (NCI-H1993; first compound 0.1265 µM): 0.958
- relative viability (NCI-H1993; first compound 0.4 µM): 0.865
- relative viability (NCI-H1993; first compound 1.265 µM): 0.71
- relative viability (NCI-H1993; first compound 4 µM): 0.82
- relative viability (NCI-H2023; first compound 0.04 µM): 0.58
- relative viability (NCI-H2023; first compound 0.1265 µM): 0.66
- relative viability (NCI-H2023; first compound 0.4 µM): 0.762
- relative viability (NCI-H2023; first compound 1.265 µM): 0.537
- relative viability (NCI-H2023; first compound 4 µM): 0.688
- relative viability (NCI-H520; first compound 0.04 µM): 0.199
- relative viability (NCI-H520; first compound 0.1265 µM): 0.19
- relative viability (NCI-H520; first compound 0.4 µM): 0.22
- relative viability (NCI-H520; first compound 1.265 µM): 0.221
- relative viability (NCI-H520; first compound 4 µM): 0.246
- relative viability (NCI-H2170; first compound 0.04 µM): 0.79
- relative viability (NCI-H2170; first compound 0.1265 µM): 0.644
- relative viability (NCI-H2170; first compound 0.4 µM): 0.715
- relative viability (NCI-H2170; first compound 1.265 µM): 0.641
- relative viability (NCI-H2170; first compound 4 µM): 0.692
- relative viability (NCI-H647; first compound 0.04 µM): 0.128
- relative viability (NCI-H647; first compound 0.1265 µM): 0.0977
- relative viability (NCI-H647; first compound 0.4 µM): 0.169
- relative viability (NCI-H647; first compound 1.265 µM): 0.187
- relative viability (NCI-H647; first compound 4 µM): 0.138
- relative viability (HCC-44; first compound 0.04 µM): 1.24
- relative viability (HCC-44; first compound 0.1265 µM): 1.01
- relative viability (HCC-44; first compound 0.4 µM): 0.953
- relative viability (HCC-44; first compound 1.265 µM): 0.927
- relative viability (HCC-44; first compound 4 µM): 1.05
- relative viability (NCI-H1793; first compound 0.04 µM): 0.156
- relative viability (NCI-H1793; first compound 0.1265 µM): 0.19
- relative viability (NCI-H1793; first compound 0.4 µM): 0.192
- relative viability (NCI-H1793; first compound 1.265 µM): 0.166
- relative viability (NCI-H1793; first compound 4 µM): 0.2
- relative viability (NCI-H2085; first compound 0.04 µM): 0.474
- relative viability (NCI-H2085; first compound 0.1265 µM): 0.529
- relative viability (NCI-H2085; first compound 0.4 µM): 0.464
- relative viability (NCI-H2085; first compound 1.265 µM): 0.609
- relative viability (NCI-H2085; first compound 4 µM): 0.469
- relative viability (NCI-H1734; first compound 0.04 µM): 0.224
- relative viability (NCI-H1734; first compound 0.1265 µM): 0.153
- relative viability (NCI-H1734; first compound 0.4 µM): 0.193
- relative viability (NCI-H1734; first compound 1.265 µM): 0.167
- relative viability (NCI-H1734; first compound 4 µM): 0.192
- relative viability (LOU-NH91; first compound 0.04 µM): 0.371
- relative viability (LOU-NH91; first compound 0.1265 µM): 0.331
- relative viability (LOU-NH91; first compound 1.265 µM): 0.368
- relative viability (LOU-NH91; first compound 4 µM): 0.315
- relative viability (NCI-H1563; first compound 0.04 µM): 0.493
- relative viability (NCI-H1563; first compound 0.1265 µM): 0.539
- relative viability (NCI-H1563; first compound 0.4 µM): 0.519
- relative viability (NCI-H1563; first compound 1.265 µM): 0.495
- relative viability (NCI-H1563; first compound 4 µM): 0.56
- relative viability (SW 900; first compound 0.1265 µM): 0.178
- relative viability (SW 900; first compound 0.4 µM): 0.224
- relative viability (SW 900; first compound 1.265 µM): 0.166
- relative viability (SW 900; first compound 4 µM): 0.192
